How the values were obtained:
[1] = comparison value for the commercial agent; cited from earlier work
[2] = Relaxivity measurement (T1 and T2 relaxation, MRI Contrast Agent Analyzer); type: physicochemical; conditions: 0.5 T, 32° C.
Method: The method for measuring the relaxivity comprises the following steps: preparing contrast agent solutions in a gradient concentration (0.054, 0.109, 0.224, 0.451, 0.906 mM, in Hepes buffer, pH=7.4), and measuring the contrast agent samples at different concentrations by Niumag PQ001 MRI Contrast Agent Analyzer (0.5±0.08T, main frequency of instrument: 21.3 MHz; at 32° C.) to respectively obtain their T1 and T2 relaxation time, and then performing a linear fitting between the relaxation rate, Ri (Ri=1/Ti, i=1, 2) and the contrast agent concentrations to obtain a slope, i.e., relaxivity (ri, i=1, 2). Relaxivity reflects the ability of magnetic resonance imaging contrast agent to alter the relaxation time of water proton and is an important parameter to evaluate the quality of contrast agent. Relaxivity (ri, i=1, 2) is defined as the alteration in the relaxation rate of water proton (1/Ti, i=1, 2) by unit concentration of MRI Contrast agent (mmol/L).

SMILES | relaxivity r1 [1] | relaxation efficiency r1 [2]
CNC[C@H](O)[C@@H](O)[C@H](O)[C@H](O)CO.CNC[C@H](O)[C@@H](O)[C@H](O)[C@H](O)CO.O=C([O-])CN(CCN(CC(=O)[O-])CC(=O)O)CCN(CC(=O)[O-])CC(=O)O.[Gd+3] [Magnvist®] | 3.4 mmol⁻¹ s⁻¹ | 
O=C([O-])CN(CP(=O)([O-])O)C1CCCCC1N(CC(=O)[O-])CP(=O)([O-])O.[Fe+3].[Na+] (centres unmarked) [Example 4] |  | 1.80 mmol⁻¹ s⁻¹

From US20230098403A1, “MAGNETIC RESONANCE IMAGING CONTRAST AGENT, PREPARATION METHOD AND USE THEREOF” (GUANGZHOU PINGLAN MEDICAL TECHNOLOGY CO., LTD., priority 2020, published 2023)
